{"source": "patent EP4745135A1", "about": "(Gluetacs Therapeutics (Shanghai) Co., Ltd., priority 2023, dated 2025)", "key": {"[1]": {"target": "T1, human Cereblon WT GST-tagged protein (Homo sapiens, UniProt Q96SW2)", "T1 construct": "purchased CISBIO 64BDCRBNPEH", "T1 sequence (Q96SW2 whole entry)": "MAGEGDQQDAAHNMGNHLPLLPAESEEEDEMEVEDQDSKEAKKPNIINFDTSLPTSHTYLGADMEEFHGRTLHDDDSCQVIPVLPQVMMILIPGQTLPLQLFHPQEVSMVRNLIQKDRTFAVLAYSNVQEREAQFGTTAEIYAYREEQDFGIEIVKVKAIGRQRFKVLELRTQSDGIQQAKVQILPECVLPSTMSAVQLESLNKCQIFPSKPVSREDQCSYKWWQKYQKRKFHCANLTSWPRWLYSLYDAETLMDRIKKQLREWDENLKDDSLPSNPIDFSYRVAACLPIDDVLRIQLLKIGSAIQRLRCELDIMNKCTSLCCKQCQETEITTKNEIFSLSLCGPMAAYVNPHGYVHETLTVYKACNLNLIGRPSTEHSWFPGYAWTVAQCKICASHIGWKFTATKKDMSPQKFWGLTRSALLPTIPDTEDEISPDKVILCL", "assay": "CRBN-binding affinity, HTRF (CEREBLON BINDING kit)", "conditions": "for inhibition at 0.5 µM: read-out: Inhibition Rate at 0.5 µM (%); for inhibition at 2 µM: read-out: Inhibition Rate at 2 µM (%)"}, "GSPT1": {"system": "GSPT1", "assay": "Western blot, degradation of substrate protein in hPBMCs", "type": "cell-based, Human"}, "IKZF3": {"target": "T2, IKZF3 (Homo sapiens, UniProt Q96SW2+Q9UKT9)", "T2 construct": "effects of the compounds of the present disclosure on the expression of target proteins in cells; endogenous in cells; host or cells: human PBMCs (Milecell Biotechnologies)", "T2 sequence (Q9UKT9 whole entry)": "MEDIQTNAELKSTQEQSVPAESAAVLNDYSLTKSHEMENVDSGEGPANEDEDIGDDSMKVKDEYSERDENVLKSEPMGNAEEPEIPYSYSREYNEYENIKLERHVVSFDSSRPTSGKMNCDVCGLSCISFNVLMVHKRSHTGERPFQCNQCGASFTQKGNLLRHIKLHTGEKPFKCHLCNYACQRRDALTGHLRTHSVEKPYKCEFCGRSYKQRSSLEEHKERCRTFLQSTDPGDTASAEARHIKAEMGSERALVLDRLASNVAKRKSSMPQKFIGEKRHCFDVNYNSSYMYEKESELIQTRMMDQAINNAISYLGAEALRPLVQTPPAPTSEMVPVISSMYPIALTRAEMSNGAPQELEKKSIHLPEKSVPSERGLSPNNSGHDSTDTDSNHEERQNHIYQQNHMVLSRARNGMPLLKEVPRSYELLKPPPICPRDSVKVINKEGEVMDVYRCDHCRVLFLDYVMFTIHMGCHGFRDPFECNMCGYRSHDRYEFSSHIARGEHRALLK", "T2 sequence (Q96SW2 whole entry)": "as the sequence (Q96SW2 whole entry) above", "T2 sequence (Q16531 whole entry partner)": "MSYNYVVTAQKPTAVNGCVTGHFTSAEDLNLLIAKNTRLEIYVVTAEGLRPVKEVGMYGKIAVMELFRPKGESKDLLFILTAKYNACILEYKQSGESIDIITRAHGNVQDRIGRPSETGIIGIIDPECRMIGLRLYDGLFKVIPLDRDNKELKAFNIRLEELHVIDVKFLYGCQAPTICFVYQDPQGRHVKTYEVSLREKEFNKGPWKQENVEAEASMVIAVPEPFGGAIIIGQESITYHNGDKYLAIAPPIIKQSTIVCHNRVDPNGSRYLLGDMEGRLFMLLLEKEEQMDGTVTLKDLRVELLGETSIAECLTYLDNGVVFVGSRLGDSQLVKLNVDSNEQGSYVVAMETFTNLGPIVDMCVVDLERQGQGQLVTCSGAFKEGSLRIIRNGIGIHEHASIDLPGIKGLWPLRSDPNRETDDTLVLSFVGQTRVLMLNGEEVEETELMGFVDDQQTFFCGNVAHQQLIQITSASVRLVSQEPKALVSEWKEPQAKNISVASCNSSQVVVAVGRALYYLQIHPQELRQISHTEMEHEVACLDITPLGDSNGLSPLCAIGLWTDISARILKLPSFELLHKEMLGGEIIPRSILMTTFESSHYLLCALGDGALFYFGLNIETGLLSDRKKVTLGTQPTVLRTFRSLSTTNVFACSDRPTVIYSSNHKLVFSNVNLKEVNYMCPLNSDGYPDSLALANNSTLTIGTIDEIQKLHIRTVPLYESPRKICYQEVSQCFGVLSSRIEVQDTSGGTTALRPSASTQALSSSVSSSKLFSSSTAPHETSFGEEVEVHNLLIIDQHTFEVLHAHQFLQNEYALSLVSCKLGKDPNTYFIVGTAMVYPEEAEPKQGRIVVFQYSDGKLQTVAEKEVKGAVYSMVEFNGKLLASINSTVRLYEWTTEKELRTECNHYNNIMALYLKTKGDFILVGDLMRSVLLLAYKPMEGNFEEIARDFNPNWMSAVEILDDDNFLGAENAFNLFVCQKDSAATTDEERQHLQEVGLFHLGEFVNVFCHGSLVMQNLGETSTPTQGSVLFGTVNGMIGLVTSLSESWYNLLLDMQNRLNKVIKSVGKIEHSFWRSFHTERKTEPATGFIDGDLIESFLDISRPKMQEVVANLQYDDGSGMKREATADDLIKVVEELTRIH", "assay": "Western blot, degradation of substrate protein in hPBMCs", "type": "cell-based"}, "WEE1": {"target": "T3, WEE1 (Homo sapiens, UniProt P30291+Q96SW2)", "T3 construct": "effects of the compounds of the present disclosure on the expression of target proteins in cells; endogenous in cells; host or cells: human PBMCs (Milecell Biotechnologies)", "T3 sequence (P30291 whole entry)": "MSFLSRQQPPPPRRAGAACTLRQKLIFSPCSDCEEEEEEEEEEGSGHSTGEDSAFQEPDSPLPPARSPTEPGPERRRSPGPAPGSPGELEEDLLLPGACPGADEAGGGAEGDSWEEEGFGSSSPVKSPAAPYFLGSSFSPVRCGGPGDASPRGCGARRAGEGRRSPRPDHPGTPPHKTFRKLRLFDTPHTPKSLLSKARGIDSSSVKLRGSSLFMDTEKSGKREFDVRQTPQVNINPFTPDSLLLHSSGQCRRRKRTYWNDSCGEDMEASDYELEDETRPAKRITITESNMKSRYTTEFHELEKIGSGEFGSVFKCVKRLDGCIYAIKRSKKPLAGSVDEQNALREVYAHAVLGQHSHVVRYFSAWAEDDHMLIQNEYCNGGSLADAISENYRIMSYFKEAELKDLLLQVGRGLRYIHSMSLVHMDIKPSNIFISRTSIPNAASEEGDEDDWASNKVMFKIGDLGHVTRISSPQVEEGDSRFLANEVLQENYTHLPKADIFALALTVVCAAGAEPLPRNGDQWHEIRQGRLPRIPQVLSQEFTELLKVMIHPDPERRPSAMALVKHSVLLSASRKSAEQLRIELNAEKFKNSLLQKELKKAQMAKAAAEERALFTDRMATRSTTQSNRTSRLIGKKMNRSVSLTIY", "T3 sequence (Q96SW2 whole entry)": "as the sequence (Q96SW2 whole entry) above", "T3 sequence (Q16531 whole entry partner)": "as the sequence (Q16531 whole entry partner) above", "assay": "Western blot, degradation of substrate protein in hPBMCs", "type": "cell-based"}, "CK1α": {"target": "T4, CK1α (Homo sapiens, UniProt P48729+Q96SW2)", "T4 construct": "effects of the compounds of the present disclosure on the expression of target proteins in cells; endogenous in cells; host or cells: human PBMCs (Milecell Biotechnologies)", "T4 sequence (P48729 whole entry)": "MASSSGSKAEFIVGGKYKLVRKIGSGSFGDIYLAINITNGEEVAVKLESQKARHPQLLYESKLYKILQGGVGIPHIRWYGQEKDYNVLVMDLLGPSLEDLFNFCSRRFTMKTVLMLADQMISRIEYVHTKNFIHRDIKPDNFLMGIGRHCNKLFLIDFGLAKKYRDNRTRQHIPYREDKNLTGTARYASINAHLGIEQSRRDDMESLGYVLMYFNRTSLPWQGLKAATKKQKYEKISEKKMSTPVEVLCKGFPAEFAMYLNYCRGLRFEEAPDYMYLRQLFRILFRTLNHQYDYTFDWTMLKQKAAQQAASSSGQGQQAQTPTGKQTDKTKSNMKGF", "T4 sequence (Q96SW2 whole entry)": "as the sequence (Q96SW2 whole entry) above", "T4 sequence (Q16531 whole entry partner)": "as the sequence (Q16531 whole entry partner) above", "assay": "Western blot, degradation of substrate protein in hPBMCs", "type": "cell-based"}, "IKZF2": {"target": "T5, IKZF2 (Homo sapiens, UniProt Q96SW2+Q9UKS7)", "T5 construct": "effects of the compounds of the present disclosure on the expression of target proteins in cells; endogenous in cells; host or cells: human PBMCs (Milecell Biotechnologies)", "T5 sequence (Q9UKS7 whole entry)": "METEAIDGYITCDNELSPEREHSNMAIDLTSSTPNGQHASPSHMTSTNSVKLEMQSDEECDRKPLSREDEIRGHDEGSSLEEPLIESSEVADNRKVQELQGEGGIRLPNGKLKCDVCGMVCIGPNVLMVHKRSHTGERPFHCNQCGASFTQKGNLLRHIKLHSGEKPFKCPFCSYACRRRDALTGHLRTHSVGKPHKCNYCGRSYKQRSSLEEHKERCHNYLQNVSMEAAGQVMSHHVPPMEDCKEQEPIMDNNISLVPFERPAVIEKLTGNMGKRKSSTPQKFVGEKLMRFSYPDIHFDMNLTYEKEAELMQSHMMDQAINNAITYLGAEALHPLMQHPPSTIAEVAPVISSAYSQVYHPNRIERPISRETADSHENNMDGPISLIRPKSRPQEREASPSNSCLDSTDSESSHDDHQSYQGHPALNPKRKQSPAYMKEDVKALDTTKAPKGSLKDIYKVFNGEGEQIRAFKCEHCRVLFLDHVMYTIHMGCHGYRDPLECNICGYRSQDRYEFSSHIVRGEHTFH", "T5 sequence (Q96SW2 whole entry)": "as the sequence (Q96SW2 whole entry) above", "T5 sequence (Q16531 whole entry partner)": "as the sequence (Q16531 whole entry partner) above", "assay": "Western blot, degradation of substrate protein in hPBMCs", "type": "cell-based"}, "IKZF1": {"target": "T6, IKZF1 (Homo sapiens, UniProt Q13422+Q96SW2)", "T6 construct": "effects of the compounds of the present disclosure on the expression of target proteins in cells; endogenous in cells; host or cells: human PBMCs (Milecell Biotechnologies)", "T6 sequence (Q13422 whole entry)": "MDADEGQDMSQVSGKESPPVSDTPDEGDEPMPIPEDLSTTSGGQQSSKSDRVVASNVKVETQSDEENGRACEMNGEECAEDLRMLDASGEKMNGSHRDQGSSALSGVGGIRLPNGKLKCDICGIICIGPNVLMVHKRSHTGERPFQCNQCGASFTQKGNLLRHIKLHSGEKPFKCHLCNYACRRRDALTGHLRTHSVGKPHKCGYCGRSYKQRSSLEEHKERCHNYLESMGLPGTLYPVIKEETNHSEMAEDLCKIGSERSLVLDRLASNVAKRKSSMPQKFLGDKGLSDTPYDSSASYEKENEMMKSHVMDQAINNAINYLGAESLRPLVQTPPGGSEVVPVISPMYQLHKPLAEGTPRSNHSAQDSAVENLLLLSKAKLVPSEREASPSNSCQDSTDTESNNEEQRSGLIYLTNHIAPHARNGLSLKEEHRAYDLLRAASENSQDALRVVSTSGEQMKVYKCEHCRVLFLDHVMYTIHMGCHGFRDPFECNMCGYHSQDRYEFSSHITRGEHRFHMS", "T6 sequence (Q96SW2 whole entry)": "as the sequence (Q96SW2 whole entry) above", "T6 sequence (Q16531 whole entry partner)": "as the sequence (Q16531 whole entry partner) above", "assay": "Western blot, degradation of substrate protein in hPBMCs", "type": "cell-based"}, "[2]": {"conditions": "24 hours treatment, compounds at 50 nM and 500 nM (concentration behind the class not stated)"}, "[3]": {"conditions": "Western blot, 24 hours of compound treatment, compounds tested at 50 nM and 500 nM (concentration for the table not stated)"}}, "data": [{"smiles": "O=C1CCC(N2Cc3c(CN4CCN(c5ccsc5)CC4)cccc3C2=S)C(=O)N1", "note": "(stereo not shown) [GT-08313, 3-(4-((4-(thiophen-3-yl)piperazin-1-yl)methyl)-1-thioxoisoindolin-2-yl)piperidine-2,6-dione]", "values": [{"measurement": "inhibition at 0.5 µM", "setting": "[1]", "value": "40 to 53", "unit": "%"}, {"measurement": "inhibition at 2 µM", "setting": "[1]", "value": "60 to 80", "unit": "%"}, {"measurement": "GSPT1 substrate protein remaining %", "setting": "GSPT1; [2]", "value": "B (80%< substrate protein remaining %≤ 100%)"}, {"measurement": "IKZF3 substrate protein remaining %", "setting": "IKZF3; [2]", "value": "B (80%< substrate protein remaining %≤ 100%)"}, {"measurement": "Wee1 substrate protein remaining %", "setting": "WEE1; [2]", "value": "A (0% ≤ substrate protein remaining % ≤ 80%)"}, {"measurement": "CK1α substrate protein remaining %", "setting": "CK1α; [2]", "value": "B (80%< substrate protein remaining %≤ 100%)"}, {"measurement": "IKZF2 substrate protein remaining %", "setting": "IKZF2; [2]", "value": "A (0% ≤ substrate protein remaining % ≤ 80%)"}, {"measurement": "IKZF 1 substrate protein remaining %", "setting": "IKZF1; [2]", "value": "B (80%< substrate protein remaining %≤ 100%)"}]}, {"smiles": "O=C1CCC(N2Cc3c(CN4CCN(c5cnccn5)CC4)cccc3C2=S)C(=O)N1", "note": "(stereo not shown) [GT-08813, 3-(4-((4-(pyrazin-2-yl)piperazin-1-yl)methyl)-1-thioxoisoindolin-2-yl)piperidine-2,6-dione]", "values": [{"measurement": "inhibition at 0.5 µM", "setting": "[1]", "value": "60 to 80", "unit": "%"}, {"measurement": "inhibition at 2 µM", "setting": "[1]", "value": "80 to 100", "unit": "%"}, {"measurement": "GSPT1 substrate protein remaining %", "setting": "GSPT1; [3]", "value": "B (80%< substrate protein remaining %≤ 100%)"}, {"measurement": "IKZF3 substrate protein remaining %", "setting": "IKZF3; [3]", "value": "B (80%< substrate protein remaining %≤ 100%)"}, {"measurement": "Wee1 substrate protein remaining %", "setting": "WEE1; [3]", "value": "A (0% ≤ substrate protein remaining % ≤ 80%)"}, {"measurement": "CK1α substrate protein remaining %", "setting": "CK1α; [3]", "value": "B (80%< substrate protein remaining %≤ 100%)"}, {"measurement": "IKZF2 substrate protein remaining %", "setting": "IKZF2; [3]", "value": "B (80%< substrate protein remaining %≤ 100%)"}, {"measurement": "IKZF 1 substrate protein remaining %", "setting": "IKZF1; [3]", "value": "B (80%< substrate protein remaining %≤ 100%)"}]}, {"smiles": "O=C1CCC(N2Cc3c(CN4CCN(c5ncc6ccsc6n5)CC4)cccc3C2=S)C(=O)N1", "note": "(stereo not shown) [GT-08927, 3-(4-((4-(thieno[2,3-d]pyrimidin-2-yl)piperazin-1-yl)methyl)-1-thioxoisoindolin-2-yl)piperidine-2,6-dione]", "values": [{"measurement": "inhibition at 0.5 µM", "setting": "[1]", "value": "60 to 80", "unit": "%"}, {"measurement": "inhibition at 2 µM", "setting": "[1]", "value": "80 to 100", "unit": "%"}, {"measurement": "GSPT1 substrate protein remaining %", "setting": "GSPT1; [2]", "value": "B (80%< substrate protein remaining %≤ 100%)"}, {"measurement": "IKZF3 substrate protein remaining %", "setting": "IKZF3; [2]", "value": "A (0% ≤ substrate protein remaining % ≤ 80%)"}, {"measurement": "Wee1 substrate protein remaining %", "setting": "WEE1; [2]", "value": "A (0% ≤ substrate protein remaining % ≤ 80%)"}, {"measurement": "CK1α substrate protein remaining %", "setting": "CK1α; [2]", "value": "B (80%< substrate protein remaining %≤ 100%)"}, {"measurement": "IKZF2 substrate protein remaining %", "setting": "IKZF2; [2]", "value": "A (0% ≤ substrate protein remaining % ≤ 80%)"}, {"measurement": "IKZF 1 substrate protein remaining %", "setting": "IKZF1; [2]", "value": "B (80%< substrate protein remaining %≤ 100%)"}]}, {"smiles": "O=C1CCC(N2Cc3c(CN4CCN(c5c(Cl)cncc5Br)CC4)cccc3C2=S)C(=O)N1", "note": "(stereo not shown) [GT-08801, 3-(4-((4-(3-bromo-5-chloropyridin-4-yl)piperazin-1-yl)methyl)-1-thioxoisoindolin-2-yl)piperidine-2,6-dione]", "values": [{"measurement": "inhibition at 0.5 µM", "setting": "[1]", "value": "60 to 80", "unit": "%"}, {"measurement": "inhibition at 2 µM", "setting": "[1]", "value": "80 to 100", "unit": "%"}, {"measurement": "GSPT1 substrate protein remaining %", "setting": "GSPT1; [3]", "value": "B (80%< substrate protein remaining %≤ 100%)"}, {"measurement": "IKZF3 substrate protein remaining %", "setting": "IKZF3; [3]", "value": "B (80%< substrate protein remaining %≤ 100%)"}, {"measurement": "Wee1 substrate protein remaining %", "setting": "WEE1; [3]", "value": "A (0% ≤ substrate protein remaining % ≤ 80%)"}, {"measurement": "CK1α substrate protein remaining %", "setting": "CK1α; [3]", "value": "B (80%< substrate protein remaining %≤ 100%)"}, {"measurement": "IKZF2 substrate protein remaining %", "setting": "IKZF2; [3]", "value": "B (80%< substrate protein remaining %≤ 100%)"}, {"measurement": "IKZF 1 substrate protein remaining %", "setting": "IKZF1; [3]", "value": "B (80%< substrate protein remaining %≤ 100%)"}]}, {"smiles": "O=C1CCC(N2Cc3c(CN4CCN(c5nc(N6CCOCC6)nc6ccsc56)CC4)cccc3C2=S)C(=O)N1", "note": "(stereo not shown) [GT-09032, 3-(4-((4-(2-morpholinothieno[3,2-d]pyrimidin-4-yl)piperazin-1-yl)methyl)-1-thioxoisoindolin-2-yl)piperidine-2,6-dione]", "values": [{"measurement": "inhibition at 0.5 µM", "setting": "[1]", "value": "40 to 53", "unit": "%"}, {"measurement": "inhibition at 2 µM", "setting": "[1]", "value": "80 to 100", "unit": "%"}, {"measurement": "GSPT1 substrate protein remaining %", "setting": "GSPT1; [2]", "value": "B (80%< substrate protein remaining %≤ 100%)"}, {"measurement": "IKZF3 substrate protein remaining %", "setting": "IKZF3; [2]", "value": "B (80%< substrate protein remaining %≤ 100%)"}, {"measurement": "Wee1 substrate protein remaining %", "setting": "WEE1; [2]", "value": "A (0% ≤ substrate protein remaining % ≤ 80%)"}, {"measurement": "CK1α substrate protein remaining %", "setting": "CK1α; [2]", "value": "B (80%< substrate protein remaining %≤ 100%)"}, {"measurement": "IKZF2 substrate protein remaining %", "setting": "IKZF2; [2]", "value": "B (80%< substrate protein remaining %≤ 100%)"}, {"measurement": "IKZF 1 substrate protein remaining %", "setting": "IKZF1; [2]", "value": "B (80%< substrate protein remaining %≤ 100%)"}]}]}
